Measured values published in ChEMBL document CHEMBL3407376, “Identification of novel class of falcipain-2 inhibitors as potential antimalarial agents” (Bioorg Med Chem, 2015).
Activity calls are given as the source filed them. The rule behind the calls is not given here.

test system: not listed separately; test: Selectivity ratio of IC50 for CHO cells to IC50 for Plasmodium falciparum; format: ADME, cell-based; settings: hamster, read-out: Ratio IC50

SMILES | selectivity ratio
CC(C)C[C@H](NC(=O)[C@H](CC(C)C)NC(=O)N1CCOCC1)C(=O)N[C@H](C(=O)N1CCC[C@H]1COc1ccc(F)cc1)c1ccccc1 | 150

test system: Plasmodium falciparum; test: Selectivity ratio of EC50 for Plasmodium falciparum isolate MCamp to EC50 for Plasmodium falciparum 3D7; format: functional; settings: not given

SMILES | Ratio EC50
CC(C)C[C@H](NC(=O)[C@H](CC(C)C)NC(=O)N1CCOCC1)C(=O)N[C@H](C(=O)N1CCC[C@H]1COc1ccc(F)cc1)c1ccccc1 | 8

test system: Plasmodium falciparum; test: Antimalarial activity against asexual stage Plasmodium falciparum assessed as morphological abnormalities after 32 to 46 hrs relative to control; format: functional, organism-based; settings: not given

SMILES | Activity
CC(C)C[C@H](NC(=O)[C@H](CC(C)C)NC(=O)N1CCCCC1)C(=O)N[C@@H](Cc1c[nH]c2ccccc12)C(=O)N1CCN=C1COc1ccc(F)cc1 | Active

test system: Plasmodium falciparum; test: Antimalarial activity against asexual stage Plasmodium falciparum assessed as growth arrest at trophozoite stage after 32 to 60 hrs relative to control; format: functional, organism-based; settings: not given

SMILES | Activity
CC(C)C[C@H](NC(=O)[C@H](CC(C)C)NC(=O)N1CCCCC1)C(=O)N[C@@H](Cc1c[nH]c2ccccc12)C(=O)N1CCN=C1COc1ccc(F)cc1 | Active
CC(C)C[C@H](NC(=O)[C@H](CC(C)C)NC(=O)N1CCOCC1)C(=O)N[C@H](C(=O)N1CCC[C@H]1COc1ccc(F)cc1)c1ccccc1 | Active
CC(C)C[C@H](NC(=O)[C@H](CC(C)C)NC(=O)N1CCCCC1)C(=O)N[C@H](C(=O)N1CCN=C1COc1ccc(F)cc1)c1ccccc1 | Active

test system: Plasmodium falciparum; test: Antimalarial activity against Plasmodium falciparum 3D7 infected in human erythrocytes after 48 hrs by SYBR green assay; format: functional, organism-based; settings: not given

IC50 | SMILES
Not Active | CC(C)C[C@H](NC(=O)CN1CCN(C)CC1)C(=O)N[C@@H](CC(C)C)C(=O)N[C@@H](Cc1c[nH]c2ccccc12)C(=O)N1CCC[C@H]1COc1ccc(F)cc1
Not Active | CC(C)C[C@H](NC(=O)N1CCOCC1)c1nc(C(=O)N[C@@H](Cc2ccccc2)C(=O)N2CCC[C@H]2COc2ccc(F)cc2)co1
Not Active | CC(C)C[C@H](NC(=O)CN1CCN(C)CC1)C(=O)N[C@@H](CC(C)C)C(=O)N[C@H](C(=O)N1CCC[C@H]1COc1ccc(F)cc1)c1ccccc1
Not Active | CC(C)C[C@H](NC(=O)[C@H](CC(C)C)NC(=O)N1CCCCC1)C(=O)N[C@H](C(=O)N1CCC[C@H]1COc1ccc(F)cc1)c1ccccc1
Not Active | CC(C)C[C@H](NC(=O)CN1CCC(CCO)CC1)C(=O)N[C@@H](CC(C)C)C(=O)N[C@H](C(=O)N1CCC[C@H]1COc1ccc(F)cc1)c1ccccc1
Not Active | COC(=O)C1CCN(CC(=O)N[C@@H](CC(C)C)C(=O)N[C@@H](CC(C)C)C(=O)N[C@H](C(=O)N2CCC[C@H]2COc2ccc(F)cc2)c2ccccc2)CC1

same assay, conditions: Plasmodium falciparum, 3D7, 48 h; read-out: IC50

IC50 [µM] | SMILES
5.5 | CC(C)C[C@H](NC(=O)[C@H](CC(C)C)NC(=O)N1CCCCC1)C(=O)N[C@@H](Cc1c[nH]c2ccccc12)C(=O)N1CCN=C1COc1ccc(F)cc1
0.9 | CC(C)C[C@H](NC(=O)[C@H](CC(C)C)NC(=O)N1CCOCC1)C(=O)N[C@H](C(=O)N1CCC[C@H]1COc1ccc(F)cc1)c1ccccc1
18.8 | CC(C)C[C@H](NC(=O)CN1CCC(CCO)CC1)C(=O)N[C@@H](CC(C)C)C(=O)N[C@@H](Cc1c[nH]c2ccccc12)C(=O)N1CCN=C1COc1ccc(F)cc1
10 | CC(C)C[C@H](NC(=O)[C@H](CC(C)C)NC(=O)N1CCOCC1)C(=O)N[C@@H](Cc1c[nH]c2ccccc12)C(=O)N1CCC[C@H]1COc1ccc(F)cc1
5.2 | CC(C)C[C@H](NC(=O)[C@H](CC(C)C)NC(=O)N1CCCCC1)C(=O)N[C@H](C(=O)N1CCN=C1COc1ccc(F)cc1)c1ccccc1

test system: Plasmodium falciparum; test: Antimalarial activity against asexual stage Plasmodium falciparum assessed as abnormal parasites after 60 hrs relative to control; format: functional, organism-based; settings: not given

SMILES | Activity
CC(C)C[C@H](NC(=O)[C@H](CC(C)C)NC(=O)N1CCCCC1)C(=O)N[C@@H](Cc1c[nH]c2ccccc12)C(=O)N1CCN=C1COc1ccc(F)cc1 | Active
CC(C)C[C@H](NC(=O)[C@H](CC(C)C)NC(=O)N1CCOCC1)C(=O)N[C@H](C(=O)N1CCC[C@H]1COc1ccc(F)cc1)c1ccccc1 | Active
CC(C)C[C@H](NC(=O)[C@H](CC(C)C)NC(=O)N1CCCCC1)C(=O)N[C@H](C(=O)N1CCN=C1COc1ccc(F)cc1)c1ccccc1 | Active

test system: Plasmodium falciparum; test: Selectivity ratio of EC50 for Plasmodium falciparum 3D7 to EC50 for Plasmodium falciparum Dd2; format: functional; settings: not given

SMILES | Ratio EC50
CC(C)C[C@H](NC(=O)[C@H](CC(C)C)NC(=O)N1CCCCC1)C(=O)N[C@@H](Cc1c[nH]c2ccccc12)C(=O)N1CCN=C1COc1ccc(F)cc1 | 3
CC(C)C[C@H](NC(=O)[C@H](CC(C)C)NC(=O)N1CCCCC1)C(=O)N[C@H](C(=O)N1CCN=C1COc1ccc(F)cc1)c1ccccc1 | 3

test system: CHO; test: Cytotoxicity against CHO cells after 24 hrs by WST-1 assay; format: cell-based; settings: Cricetulus griseus

SMILES | IC50 [µM]
CC(C)C[C@H](NC(=O)[C@H](CC(C)C)NC(=O)N1CCCCC1)C(=O)N[C@@H](Cc1c[nH]c2ccccc12)C(=O)N1CCN=C1COc1ccc(F)cc1 | > 468
CC(C)C[C@H](NC(=O)[C@H](CC(C)C)NC(=O)N1CCOCC1)C(=O)N[C@H](C(=O)N1CCC[C@H]1COc1ccc(F)cc1)c1ccccc1 | 168

test system: Plasmodium falciparum; test: Selectivity ratio of EC50 for Plasmodium falciparum Dd2 to EC50 for Plasmodium falciparum 3D7; format: functional; settings: not given

SMILES | Ratio EC50
CC(C)C[C@H](NC(=O)[C@H](CC(C)C)NC(=O)N1CCOCC1)C(=O)N[C@H](C(=O)N1CCC[C@H]1COc1ccc(F)cc1)c1ccccc1 | 8

test system: Plasmodium falciparum; test: Antimalarial activity against asexual stage Plasmodium falciparum assessed as abnormal food vacuole after 32 to 46 hrs relative to control; format: functional, organism-based; settings: not given

SMILES | Activity
CC(C)C[C@H](NC(=O)[C@H](CC(C)C)NC(=O)N1CCCCC1)C(=O)N[C@@H](Cc1c[nH]c2ccccc12)C(=O)N1CCN=C1COc1ccc(F)cc1 | Active

target: T1, Falcipain 2 (Plasmodium falciparum, UniProt Q9N6S8); test: Inhibition of Plasmodium falciparum recombinant falcipain-2 using ZFR-AMC as substrate after 30 mins by fluorometric assay; settings: not given
T1 sequence (Q9N6S8 whole entry): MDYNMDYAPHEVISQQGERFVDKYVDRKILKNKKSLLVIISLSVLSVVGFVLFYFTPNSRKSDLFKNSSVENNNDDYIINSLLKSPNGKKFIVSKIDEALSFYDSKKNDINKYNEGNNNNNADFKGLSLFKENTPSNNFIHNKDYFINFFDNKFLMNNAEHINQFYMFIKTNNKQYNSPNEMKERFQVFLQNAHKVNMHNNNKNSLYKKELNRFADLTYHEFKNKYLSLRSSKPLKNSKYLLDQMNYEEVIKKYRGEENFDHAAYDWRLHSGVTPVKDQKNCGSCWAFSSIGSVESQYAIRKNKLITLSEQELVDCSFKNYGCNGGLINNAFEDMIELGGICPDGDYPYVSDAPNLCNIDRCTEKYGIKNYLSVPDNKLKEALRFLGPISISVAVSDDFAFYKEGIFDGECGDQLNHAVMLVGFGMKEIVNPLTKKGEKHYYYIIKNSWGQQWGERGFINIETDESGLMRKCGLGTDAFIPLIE

Ki [µM] | SMILES
0.2 | CC(C)C[C@H](NC(=O)[C@H](CC(C)C)NC(=O)N1CCCCC1)C(=O)N[C@@H](Cc1c[nH]c2ccccc12)C(=O)N1CCN=C1COc1ccc(F)cc1
1.1 | CC(C)C[C@H](NC(=O)[C@H](CC(C)C)NC(=O)N1CCOCC1)C(=O)N[C@H](C(=O)N1CCC[C@H]1COc1ccc(F)cc1)c1ccccc1
7.49 | CC(C)C[C@H](NC(=O)CN1CCN(C)CC1)C(=O)N[C@@H](CC(C)C)C(=O)N[C@@H](Cc1c[nH]c2ccccc12)C(=O)N1CCC[C@H]1COc1ccc(F)cc1
6.2 | CC(C)C[C@H](NC(=O)CN1CCC(CCO)CC1)C(=O)N[C@@H](CC(C)C)C(=O)N[C@@H](Cc1c[nH]c2ccccc12)C(=O)N1CCN=C1COc1ccc(F)cc1
8.6 | CC(C)C[C@H](NC(=O)N1CCOCC1)c1nc(C(=O)N[C@@H](Cc2ccccc2)C(=O)N2CCC[C@H]2COc2ccc(F)cc2)co1
> 10 | CC(C)C[C@H](NC(=O)CN1CCN(C)CC1)C(=O)N[C@@H](CC(C)C)C(=O)N[C@H](C(=O)N1CCC[C@H]1COc1ccc(F)cc1)c1ccccc1
1.3 | CC(C)C[C@H](NC(=O)[C@H](CC(C)C)NC(=O)N1CCCCC1)C(=O)N[C@H](C(=O)N1CCC[C@H]1COc1ccc(F)cc1)c1ccccc1
0.4 | CC(C)C[C@H](NC(=O)[C@H](CC(C)C)NC(=O)N1CCOCC1)C(=O)N[C@@H](Cc1c[nH]c2ccccc12)C(=O)N1CCC[C@H]1COc1ccc(F)cc1
0.8 | CC(C)C[C@H](NC(=O)[C@H](CC(C)C)NC(=O)N1CCCCC1)C(=O)N[C@H](C(=O)N1CCN=C1COc1ccc(F)cc1)c1ccccc1
> 10 | CC(C)C[C@H](NC(=O)CN1CCC(CCO)CC1)C(=O)N[C@@H](CC(C)C)C(=O)N[C@H](C(=O)N1CCC[C@H]1COc1ccc(F)cc1)c1ccccc1
> 100 | COC(=O)C1CCN(CC(=O)N[C@@H](CC(C)C)C(=O)N[C@@H](CC(C)C)C(=O)N[C@H](C(=O)N2CCC[C@H]2COc2ccc(F)cc2)c2ccccc2)CC1

test system: Plasmodium falciparum; test: Antimalarial activity against Plasmodium falciparum isolate MCamp infected in human erythrocytes after 48 hrs by SYBR green assay; format: functional, organism-based; settings: not given

EC50 [µM] | SMILES
6.6 | CC(C)C[C@H](NC(=O)[C@H](CC(C)C)NC(=O)N1CCCCC1)C(=O)N[C@@H](Cc1c[nH]c2ccccc12)C(=O)N1CCN=C1COc1ccc(F)cc1
12.1 | CC(C)C[C@H](NC(=O)[C@H](CC(C)C)NC(=O)N1CCOCC1)C(=O)N[C@H](C(=O)N1CCC[C@H]1COc1ccc(F)cc1)c1ccccc1
1.2 | CC(C)C[C@H](NC(=O)[C@H](CC(C)C)NC(=O)N1CCCCC1)C(=O)N[C@H](C(=O)N1CCN=C1COc1ccc(F)cc1)c1ccccc1

test system: Plasmodium falciparum; test: Antimalarial activity against Plasmodium falciparum Dd2 infected in human erythrocytes after 48 hrs by SYBR green assay; format: functional; settings: Dd2, 48 h

EC50 [µM] | SMILES
1.7 | CC(C)C[C@H](NC(=O)[C@H](CC(C)C)NC(=O)N1CCCCC1)C(=O)N[C@@H](Cc1c[nH]c2ccccc12)C(=O)N1CCN=C1COc1ccc(F)cc1
7.5 | CC(C)C[C@H](NC(=O)[C@H](CC(C)C)NC(=O)N1CCOCC1)C(=O)N[C@H](C(=O)N1CCC[C@H]1COc1ccc(F)cc1)c1ccccc1
1.9 | CC(C)C[C@H](NC(=O)[C@H](CC(C)C)NC(=O)N1CCCCC1)C(=O)N[C@H](C(=O)N1CCN=C1COc1ccc(F)cc1)c1ccccc1
